Where “and” joins values, the source holds several entries; their conditions need not be identical. Equal values may be shown once. ± gives the expanded uncertainty stated by the source.
Conditions: for vapor or sublimation pressure: Closed cell (Static) method

For FC(F)(F)/C=C/Cl [(E)-1-chloro-3,3,3-trifluoroprop-1-ene], the speed of sound (379.78 K, 201.47 kPa, Gas) was 156.72 ± 0.025 m/s, the speed of sound (379.78 K, 201.53 kPa, Gas) was 156.72 ± 0.025 m/s and the speed of sound (379.78 K, 407.41 kPa, Gas) was 151.7 ± 0.026 m/s. It also gave a speed of sound (379.78 K, 407.46 kPa, Gas) of 151.7 ± 0.026 m/s, a speed of sound (379.78 K, 407.5 kPa, Gas) of 151.7 ± 0.026 m/s and a speed of sound (379.78 K, 407.74 kPa, Gas) of 151.69 ± 0.033 m/s. It also gave a speed of sound (379.78 K, 407.82 kPa, Gas) of 151.69 ± 0.027 m/s, a speed of sound (379.78 K, 407.85 kPa, Gas) of 151.69 ± 0.026 m/s and a speed of sound (379.78 K, 568.62 kPa, Gas) of 147.47 ± 0.026 m/s. It also gave a speed of sound (379.78 K, 796.76 kPa, Gas) of 140.89 ± 0.029 m/s, a speed of sound (379.78 K, 796.81 kPa, Gas) of 140.89 ± 0.029 m/s and a speed of sound (379.79 K, 407.85 kPa, Gas) of 151.69 ± 0.027 m/s. The speed of sound (379.79 K, 796.72 kPa, Gas) was 140.89 ± 0.03 m/s, the speed of sound (379.79 K, 959.4 kPa, Gas) was 135.64 ± 0.027 m/s and the speed of sound (379.79 K, 959.42 kPa, Gas) was 135.64 ± 0.029 m/s. For the same compound, the speed of sound (379.79 K, 959.44 kPa, Gas) was 135.64 ± 0.03 m/s, the mass density (380 K, 2975.2 kPa, Fluid (supercritical or subcritical phases)) was 1043.29 ± 0.22 kg/m3 and the mass density (380 K, 3879.4 kPa, Liquid) was 1051.51 ± 0.26 kg/m3. The mass density (380.03 K, 547.9 kPa, Gas) was 25.032 ± 0.016 kg/m3, the mass density (380.03 K, 548.2 kPa, Gas) was 25.047 ± 0.017 kg/m3 and the “vapor or sublimation pressure” value (380.03 K, Liquid) was 1207.4 ± 1.9 kPa. For the same compound, the mass density (380.04 K, 428.4 kPa, Gas) was 19.095 ± 0.016 kg/m3, the mass density (383.99 K, 1844.2 kPa, Fluid (supercritical or subcritical phases)) was 1016.28 ± 0.24 kg/m3 and the mass density (383.99 K, 4425 kPa, Fluid (supercritical or subcritical phases)) was 1042.8 ± 0.24 kg/m3. For the same compound, the mass density (385 K, 5748.6 kPa, Liquid) was 1050.89 ± 0.26 kg/m3, the mass density (389.93 K, 1284.7 kPa, Gas) was 67.575 ± 0.029 kg/m3 and the mass density (390 K, 7622.7 kPa, Liquid) was 1050.32 ± 0.28 kg/m3. For the same compound, the mass density (390.03 K, 572 kPa, Gas) was 25.32 ± 0.016 kg/m3, the mass density (390.03 K, 572.2 kPa, Gas) was 25.33 ± 0.016 kg/m3 and the mass density (390.04 K, 448.1 kPa, Gas) was 19.387 ± 0.015 kg/m3. The “vapor or sublimation pressure” value (390.04 K, Liquid) was 1480.7 ± 2.3 kPa, the mass density (391.99 K, 2100.9 kPa, Fluid (supercritical or subcritical phases)) was 985.96 ± 0.23 kg/m3 and the mass density (391.99 K, 4502.1 kPa, Fluid (supercritical or subcritical phases)) was 1015.42 ± 0.24 kg/m3. For the same compound, the mass density (395 K, 2051.4 kPa, Liquid) was 971.55 ± 0.26 kg/m3, the mass density (395 K, 4073.9 kPa, Liquid) was 999.34 ± 0.25 kg/m3 and the mass density (395 K, 6005.8 kPa, Liquid) was 1020.09 ± 0.25 kg/m3. For the same compound, the mass density (395 K, 7979.4 kPa, Liquid) was 1037.8 ± 0.28 kg/m3, the mass density (395 K, 9495 kPa, Liquid) was 1049.74 ± 0.28 kg/m3 and the speed of sound (399.68 K, 81.08 kPa, Gas) was 163.78 ± 0.024 m/s. It also gave a speed of sound (399.69 K, 81.05 kPa, Gas) of 163.76 ± 0.024 m/s, a speed of sound (399.69 K, 81.08 kPa, Gas) of 163.78 ± 0.024 m/s and a speed of sound (399.7 K, 81.05 kPa, Gas) of 163.76 ± 0.024 m/s. The speed of sound (399.7 K, 200.81 kPa, Gas) was 161.43 ± 0.025 m/s, the speed of sound (399.7 K, 200.89 kPa, Gas) was 161.43 ± 0.025 m/s and the speed of sound (399.71 K, 200.94 kPa, Gas) was 161.42 ± 0.025 m/s. It also gave a speed of sound (399.71 K, 201.02 kPa, Gas) of 161.42 ± 0.024 m/s, a speed of sound (399.72 K, 579.09 kPa, Gas) of 153.49 ± 0.025 m/s and a speed of sound (399.72 K, 579.15 kPa, Gas) of 153.49 ± 0.025 m/s. It also gave a speed of sound (399.72 K, 579.18 kPa, Gas) of 153.49 ± 0.025 m/s, a speed of sound (399.73 K, 1002.2 kPa, Gas) of 143.33 ± 0.027 m/s and a speed of sound (399.74 K, 1002.2 kPa, Gas) of 143.33 ± 0.027 m/s. The speed of sound (399.74 K, 1416.7 kPa, Gas) was 131.29 ± 0.031 m/s and 131.29 ± 0.032 m/s, the speed of sound (399.75 K, 1416.7 kPa, Gas) was 131.29 ± 0.03 m/s and 131.29 ± 0.031 m/s and the mass density (399.93 K, 1343.9 kPa, Gas) was 67.621 ± 0.025 kg/m3. It also gave a mass density (399.94 K, 1613 kPa, Gas) of 87.993 ± 0.031 kg/m3, a mass density (399.98 K, 2020.5 kPa, Fluid (supercritical or subcritical phases)) of 946.51 ± 0.22 kg/m3 and a mass density (399.98 K, 2500.1 kPa, Fluid (supercritical or subcritical phases)) of 955.38 ± 0.23 kg/m3. The mass density (399.98 K, 4501.4 kPa, Fluid (supercritical or subcritical phases)) was 985.13 ± 0.23 kg/m3, the mass density (400.03 K, 468.2 kPa, Gas) was 19.679 ± 0.015 kg/m3 and the mass density (400.03 K, 596.5 kPa, Gas) was 25.617 ± 0.018 kg/m3 and 25.615 ± 0.016 kg/m3. For the same compound, the “vapor or sublimation pressure” value (400.04 K, Liquid) was 1798.9 ± 2.8 kPa, the mass density (404.94 K, 3251 kPa, Fluid (supercritical or subcritical phases)) was 944.76 ± 0.22 kg/m3 and the mass density (409.92 K, 1401.3 kPa, Gas) was 67.63 ± 0.025 kg/m3. It also gave a mass density (409.92 K, 1693.1 kPa, Gas) of 87.977 ± 0.03 kg/m3, a mass density (409.95 K, 2426 kPa, Fluid (supercritical or subcritical phases)) of 899.12 ± 0.32 kg/m3 and a mass density (409.95 K, 4566.2 kPa, Fluid (supercritical or subcritical phases)) of 944.3 ± 0.22 kg/m3. The mass density (410.01 K, 488.6 kPa, Gas) was 19.972 ± 0.016 kg/m3, the mass density (410.01 K, 620.7 kPa, Gas) was 25.887 ± 0.016 kg/m3 and 25.885 ± 0.016 kg/m3 and the “vapor or sublimation pressure” value (410.03 K, Liquid) was 2166.7 ± 3.4 kPa. The mass density (414.94 K, 3540.5 kPa, Fluid (supercritical or subcritical phases)) was 898.69 ± 0.22 kg/m3, the “vapor or sublimation pressure” value (415.03 K, Liquid) was 2371 ± 3.7 kPa and the speed of sound (419.55 K, 79.93 kPa, Gas) was 167.87 ± 0.024 m/s. The speed of sound (419.56 K, 79.92 kPa, Gas) was 167.86 ± 0.024 m/s, the speed of sound (419.56 K, 79.93 kPa, Gas) was 167.87 ± 0.024 m/s and the speed of sound (419.56 K, 79.94 kPa, Gas) was 167.88 ± 0.024 m/s. The speed of sound (419.56 K, 79.95 kPa, Gas) was 167.88 ± 0.024 m/s and 167.89 ± 0.024 m/s.

Source: the NIST ThermoML archive (doi:10.1021/acs.jced.5b00348)
